Laboratory results published in PMC9137581, “Identification of a Novel Class of Anti-Melanogenic Compounds, (Z)-5-(Substituted benzylidene)-3-phenyl-2-thioxothiazolidin-4-one Derivatives, and Their Reactive Oxygen Species Scavenging Activities” (Antioxidants, 2022).

target: T1, mushroom tyrosinase (Agaricus bisporus, UniProt C7FF04); test: Kinetic studies of mushroom tyrosinase inhibition (L-DOPA; Lineweaver–Burk and Dixon plots); assay type: biochemical; conditions: Lineweaver–Burk plots
T1 construct: purchased Sigma-Aldrich
Protocol: The Michael constants (KM), inhibition constants (Ki), and Lineweaver–Burk and Dixon plots of the analogs were used in order to determine their modes of action. […] The initial rates of dopachrome production in the reaction mixtures were calculated by measuring the increases in absorbance at 492 nm (ΔOD492/min) using a microplate reader (VersaMax™, Molecular Devices, Sunnyvale, CA, USA). The maximal reaction velocity (Vmax) was determined using Lineweaver–Burk plots (plots of the inverse of the reaction rate (1/V) versus the inverse of the substrate concentration (1/[S])) that were obtained using six different L-DOPA concentrations. The mode of action of each analog was determined using the convergence point of the four plot lines.
. Lineweaver–Burk plots were used in order to determine the modes of action of these four analogs (Figure 4). Mushroom tyrosinase inhibition plots were obtained using six different L-DOPA (substrate) concentrations and four different concentrations of each analog. […] On the other hand, the Michaelis–Menten constants (KM) increased upon the increase of the analogs’ concentrations (Table 3). The KM values of the analogs were 1.042, 1.193, 1.433, and 2.159 mM at analog 1 concentrations of 0, 1, 2, and 4 µM; 1.077, 2.117, 2.899, and 4.865 mM at analog 2 concentrations of 0, 2.5, 5, and 10 µM; […]; and 1.030, 1.243, 1.531, and 1.885 mM at analog 6 concentrations of 0, 1, 2, and 4 µM. The mean of the Vmax values that were determined from the Lineweaver–Burk plots was 0.0171 mM/min. In order to determine the inhibition constants (Ki) for the mushroom tyrosinase–analog complexes, the Lineweaver–Burk plots were converted into their corresponding Dixon plots (Figure 5), in which 1/V (where V is the initial reaction velocity) was plotted against the inhibitor concentration [I] at different L-DOPA [S] concentrations.
Target sequence in this assay (C7FF04 1-392): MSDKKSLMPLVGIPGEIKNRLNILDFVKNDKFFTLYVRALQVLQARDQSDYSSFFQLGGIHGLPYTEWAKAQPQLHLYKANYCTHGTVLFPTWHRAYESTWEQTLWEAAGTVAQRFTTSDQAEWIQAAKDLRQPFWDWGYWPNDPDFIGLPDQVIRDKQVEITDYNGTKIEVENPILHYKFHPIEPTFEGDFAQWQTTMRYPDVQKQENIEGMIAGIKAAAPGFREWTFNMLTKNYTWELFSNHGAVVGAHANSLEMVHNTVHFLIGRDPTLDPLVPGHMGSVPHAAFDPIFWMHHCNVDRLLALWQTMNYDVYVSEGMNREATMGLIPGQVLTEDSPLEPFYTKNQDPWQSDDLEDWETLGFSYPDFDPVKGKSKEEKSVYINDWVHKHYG

Compound	mode of action (type of inhibition)
O=C1/C(=C/c2ccc(O)cc2)SC(=S)N1c1ccccc1 [Analog 1, (Z)-5-(4-Hydroxybenzylidene)-3-phenyl-2-thioxothiazolidin-4-one]	competitive
O=C1/C(=C/c2ccc(O)c(O)c2)SC(=S)N1c1ccccc1 [Analog 2, (Z)-5-(3,4-Dihydroxybenzylidene)-3-phenyl-2-thioxothiazolidin-4-one]	competitive
O=C1/C(=C/c2ccc(O)cc2O)SC(=S)N1c1ccccc1 [Analog 3, (Z)-5-(2,4-Dihydroxybenzylidene)-3-phenyl-2-thioxothiazolidin-4-one]	competitive
COc1ccc(/C=C2\SC(=S)N(c3ccccc3)C2=O)cc1O [Analog 6, (Z)-5-(3-Hydroxy-4-methoxybenzylidene)-3-phenyl-2-thioxothiazolidin-4-one]	competitive

same assay, conditions: determined using Dixon plots; L-DOPA substrate

Compound	Ki [µM]
O=C1/C(=C/c2ccc(O)cc2)SC(=S)N1c1ccccc1 [Analog 1, (Z)-5-(4-Hydroxybenzylidene)-3-phenyl-2-thioxothiazolidin-4-one]	4.67
O=C1/C(=C/c2ccc(O)c(O)c2)SC(=S)N1c1ccccc1 [Analog 2, (Z)-5-(3,4-Dihydroxybenzylidene)-3-phenyl-2-thioxothiazolidin-4-one]	3.18
O=C1/C(=C/c2ccc(O)cc2O)SC(=S)N1c1ccccc1 [Analog 3, (Z)-5-(2,4-Dihydroxybenzylidene)-3-phenyl-2-thioxothiazolidin-4-one]	0.708
COc1ccc(/C=C2\SC(=S)N(c3ccccc3)C2=O)cc1O [Analog 6, (Z)-5-(3-Hydroxy-4-methoxybenzylidene)-3-phenyl-2-thioxothiazolidin-4-one]	3.23

tested on: not listed separately; test: DPPH radical scavenging activity assay; conditions: 1 mM, 30 min in the dark
Protocol: The effects of the (Z)-BPTT analogs 1–13 on DPPH radical scavenging activities were investigated as previously described with slight modification. Briefly, 180 μL of 0.2 mM DPPH in methanol was added to 96-well plates and then 20 μL of one of the (Z)-BPTT analogs 1–13 (10 mM in DMSO) or the positive control (10 mM L-ascorbic acid in distilled water) was added and mixed. The 96-well plates were incubated in the dark for 30 min and then the well optical densities were measured at 517 nm using a VersaMax™ microplate reader (Molecular Devices, Sunnyvale, CA, USA). All of these experiments were performed independently in triplicate. The DPPH radical scavenging activities of the analogs were calculated using the following formula:Scavenging activity (%) = (Ac − As) × 100/Ac where Ac is the optical density of the non-treated control and As is the optical density of the tested material.
The DPPH (2,2-diphenyl-1-picrylhydrazyl) radical scavenging abilities of the (Z)-BPTT analogs were investigated using L-ascorbic acid (vitamin C) as a positive control. The final concentrations of the analogs and of the positive control in the test samples and in the DPPH methanol solution were 1 and 0.18 mM, respectively. The scavenging activities of the analogs were assessed by measuring their optical densities at 517 nm after standing the samples in the dark for 30 min.

Compound	DPPH radical scavenging activity [%]
O=C1/C(=C/c2ccc(O)cc2)SC(=S)N1c1ccccc1 [Analog 1, (Z)-5-(4-Hydroxybenzylidene)-3-phenyl-2-thioxothiazolidin-4-one]	14.7
O=C1/C(=C/c2ccc(O)c(O)c2)SC(=S)N1c1ccccc1 [Analog 2, (Z)-5-(3,4-Dihydroxybenzylidene)-3-phenyl-2-thioxothiazolidin-4-one]	92.2
O=C1/C(=C/c2ccc(O)cc2O)SC(=S)N1c1ccccc1 [Analog 3, (Z)-5-(2,4-Dihydroxybenzylidene)-3-phenyl-2-thioxothiazolidin-4-one]	57.0
COc1ccc(/C=C2\SC(=S)N(c3ccccc3)C2=O)cc1O [Analog 6, (Z)-5-(3-Hydroxy-4-methoxybenzylidene)-3-phenyl-2-thioxothiazolidin-4-one]	27.2

tested on: intracellular ROS in B16F10 cells; test: Intracellular ROS scavenging activity assay (DCFH-DA, SIN-1); assay type: cell-based, murine; conditions: ≤ 20 µM, 10 µM SIN-1, B16F10 cells
Protocol: ROS scavenging activity was determined as has previously been described by Ali et al. and Lebel and Bondy. Briefly, DCFH-DA (2′,7′-dichlorodihydrofluorescein-diacetate) (2.5 mM; Molecular Probes, Eugene, OR, USA) mixed with esterase (1.5 units/mL) in a phosphate buffer (50 mM; pH 7.4) was incubated for 30 min at 37 °C and then placed on ice in the dark until it was required. In order to determine their intracellular ROS scavenging activities, B16F10 cells (1 × 10^4/well) were seeded in black 96-well plates and incubated for 24 h. The cells were then co-treated with the analogs and SIN-1 (3-morpholinosydnonimine) (10 µM), as previously described, for 2 h. DCFH-DA (20 µM) was added for 30 min in the dark and the fluorescence intensities of the oxidized DCFH were measured using a microplate reader (Tecan, Männedorf, Switzerland) at excitation and emission wavelengths of 485 and 530 nm, respectively. Trolox was used as the positive control.
We investigated the effects of the analogs on intracellular ROS (reactive oxygen species) because, reportedly, ROS might regulate melanogenesis in melanoma cells. The principle of the intracellular ROS assay that was used is that DCFH-DA (2′,7′-dichlorodihydrofluorescein diacetate) spreads across the cell membrane and is enzymatically hydrolyzed by esterases to DCFH (2′,7′-dichlorodihydrofluorescein), which reacts with ROS in order to generate DCF (2′,7′-dichlorofluorescein), which is fluorescent. Thus, the intracellular ROS scavenging activities of (Z)-BPTT analogs 1–3 and 6 were investigated in vitro using DCFH-DA. SIN-1 (3-morpholinosydnonimine) and trolox were used as a RNS/ROS generator [54] and a positive control, respectively.

Compound	intracellular ROS scavenging activity
O=C1/C(=C/c2ccc(O)cc2)SC(=S)N1c1ccccc1 [Analog 1, (Z)-5-(4-Hydroxybenzylidene)-3-phenyl-2-thioxothiazolidin-4-one]	did not show ROS scavenging activity
O=C1/C(=C/c2ccc(O)c(O)c2)SC(=S)N1c1ccccc1 [Analog 2, (Z)-5-(3,4-Dihydroxybenzylidene)-3-phenyl-2-thioxothiazolidin-4-one]	significantly and concentration-dependently reduced SIN-1-induced increases in the intracellular ROS activity and it did so to a greater extent than trolox
COc1ccc(/C=C2\SC(=S)N(c3ccccc3)C2=O)cc1O [Analog 6, (Z)-5-(3-Hydroxy-4-methoxybenzylidene)-3-phenyl-2-thioxothiazolidin-4-one]	did not show ROS scavenging activity

target: T1, mushroom tyrosinase; test: Mushroom tyrosinase inhibition assay (L-tyrosine substrate); assay type: biochemical; conditions: L-tyrosine substrate; means ± SEMs of triplicate determinations
Protocol: In order to examine the inhibitory effect of the (Z)-BPTT analogs on tyrosinase activity, commercially available mushroom tyrosinase (Sigma-Aldrich, St. Louis, MO, USA) was used. The mushroom tyrosinase-inhibitory activities of the analogs were determined as described previously with modification. Briefly, 20 µL (20 units) of an aqueous mushroom tyrosinase solution was added to each well of a 96-well microplate containing 170 µL of a substrate mixture consisting of 345 μM of L-tyrosine solution, 17.2 mM phosphate buffer (pH 6.5), and 10 µL of a (Z)-BPTT analog solution at different concentrations or 10 µL of a kojic acid solution (2, 10, or 50 μM). After incubating the assay mixtures for 30 min at 37 °C, the remaining tyrosinase activities were calculated from the amounts of dopachrome that were formed as determined by measuring their absorbance at 492 nm using a microplate reader (VersaMax™, Molecular Devices, Sunnyvale, CA, USA). The curves of the IC50 values that were derived from the X-axis of the inhibitor concentration versus the amount of product that was produced were determined by aligning the dose–response curve with the Y-axis. Inhibition experiments were performed in triplicate using three to six different concentrations of the (Z)-BPTT analogs or kojic acid. Log–linear curves and their equations were determined by using inhibition percentages at three to six analog concentrations. The individual IC50 values were determined by reading the concentrations on the Y-axis at 50% inhibition. The results are the means of three independent experiments.
The tyrosinase-inhibitory activities were screened against mushroom tyrosinase using L-tyrosine as a substrate, as previously described. Kojic acid, a representative tyrosinase inhibitor, was used as a positive control. […]. All 13 of the (Z)-BPTT analogs inhibited tyrosinase activity in a concentration-dependent manner. The IC50 values are shown in Table 2, along with the analog substitutions.
Target sequence in this assay (C7FF04 1-392 limits assumed): as the sequence (C7FF04 1-392) above

Compound	IC50 [µM]
O=C1/C(=C/c2ccc(O)cc2)SC(=S)N1c1ccccc1 [Analog 1, (Z)-5-(4-Hydroxybenzylidene)-3-phenyl-2-thioxothiazolidin-4-one]	1.45 ± 0.04
O=C1/C(=C/c2ccc(O)c(O)c2)SC(=S)N1c1ccccc1 [Analog 2, (Z)-5-(3,4-Dihydroxybenzylidene)-3-phenyl-2-thioxothiazolidin-4-one]	1.38 ± 0.11
O=C1/C(=C/c2ccc(O)cc2O)SC(=S)N1c1ccccc1 [Analog 3, (Z)-5-(2,4-Dihydroxybenzylidene)-3-phenyl-2-thioxothiazolidin-4-one]	0.59 ± 0.03
COc1ccc(/C=C2\SC(=S)N(c3ccccc3)C2=O)cc1O [Analog 6, (Z)-5-(3-Hydroxy-4-methoxybenzylidene)-3-phenyl-2-thioxothiazolidin-4-one]	1.88 ± 0.7

same assay, conditions: ratio of IC50 values versus analog 4

Compound	enhancement of inhibitory activity relative to analog 4 [fold]
COc1ccc(/C=C2\SC(=S)N(c3ccccc3)C2=O)cc1O [Analog 6, (Z)-5-(3-Hydroxy-4-methoxybenzylidene)-3-phenyl-2-thioxothiazolidin-4-one]	43

same assay, conditions: ratio of IC50 values versus kojic acid

Compound	potency of mushroom tyrosinase inhibition relative to kojic acid [fold]
O=C1/C(=C/c2ccc(O)cc2)SC(=S)N1c1ccccc1 [Analog 1, (Z)-5-(4-Hydroxybenzylidene)-3-phenyl-2-thioxothiazolidin-4-one]	12
O=C1/C(=C/c2ccc(O)cc2O)SC(=S)N1c1ccccc1 [Analog 3, (Z)-5-(2,4-Dihydroxybenzylidene)-3-phenyl-2-thioxothiazolidin-4-one]	29
